Format in all cases: cell-based
For test [1], the system named is IL-13. The experiment in a line: Cytokine suppression using human T cells: IL-13. Particulars: T-cell; human CD3-positive T cells, CD3 and CD28 antibody, about 48 hours; read-out: IL-13 Inhibitory Activity, Human T-Cell (Test Example 5). The protocol:
(§1) First, CD3-positive T cells were separated from whole blood by a magnetic bead method using an EasySep cell separation kit. Separated T cells suspended in RPMI-1640 medium were seeded on a 96-well plate previously coated with CD3 antibody (final concentration 3 μg/mL). Further, CD28 antibody (final concentration 5 ng/mL) was added as an IL-5 production stimulus and an IL-13 production stimulus. A test compound dissolved in dimethyl sulfoxide was added to each well, followed by culture at 37° C. under 5% CO2. The culture was carried out for about 18 hours for the evaluation of the amount of TNFα, and for about 48 hours for the evaluation of the amounts of IL-17A, IL-5, and IL-13. […]
(§2) The measurement results obtained by measuring the TNFα inhibitory activity (50% inhibitory concentration) of the test compounds by the above method were evaluated in accordance with the following evaluated basis; A: less than 10 nM, B: 10 nM or more and less than 100 nM, and C: 100 nM or more. In addition, the measurement results obtained by measuring the IL-17A inhibitory activity, IL-5 inhibitory activity, and IL-13 inhibitory activity (50% inhibitory concentration) of the test compounds were evaluated in accordance with the following evaluated basis; A: less than 500 nM, B: 500 nM or more and less than 5000 nM, and C: 5000 nM or more.

The subject of test [2] is IL-13. The experiment in a line: Cytokine suppression using human peripheral blood mononuclear cells: IL-13. The conditions noted are these: human PBMC, CD3 antibody and CD28 antibody; read-out: IL-13 Inhibitory Activity, Human PBMC (Test Example 4). How it is done: (§3) First, peripheral blood mononuclear cells (PBMC) were separated from whole blood by specific gravity centrifugation. Then, the isolated peripheral blood mononuclear cells were added to RPMI-1640 medium (containing 10% fetal bovine serum, penicillin, streptomycin, L-glutamine, and 2-mercaptoethanol), and cultured in a 96-well plate at 37° C. under 5% CO2 for 0 to 1 hour. The test compound dissolved in dimethyl sulfoxide was added to each well, followed by further culture at 37° C. under 5% CO2 for 1 hour. A medium containing only dimethyl sulfoxide instead of the test compound was added to the control well. […]
as §2, with “TNFα inhibitory activity and IL-5” for “TNFα”, “IL-23 inhibitory activity, IL-4” for “IL-5”

The test system of test [3] is HCT-116 (colorectal cancer). The experiment in a line: Antitumor activity: growth inhibition of HCT-116. The conditions noted are these: Homo sapiens, 120 h; HCT-116, culturing for 5 days; read-out: 50% growth inhibitory concentration. The protocol:
(§4) As antitumor activity, 50% growth inhibitory concentration of various cancer cells (CEM-C1 (blood cancer (leukemia)), SU-DHL-4 (blood cancer (lymphoma)), A549 (lung cancer), HCT-116 (colorectal cancer), and Daoy (brain tumor)) was calculated as follows. First, each of the above cancer cells was seeded on a 384-well plate and cultured overnight at 37° C. under 5% CO2. After that, the test compound was added at various concentrations on the next day, and each number of cells was measured after culturing for 5 days. The 50% growth inhibitory concentration was defined as the test compound concentration at which the number of cells measured is an intermediate value between the number of cells after culture for 5 days under the same conditions without the addition of the test compound and the number of cells at the time of seeding (before the start of culture). The measurement results obtained by measuring the 50% growth inhibitory concentration of the test compound by the above method were evaluated in accordance with the following evaluated basis; A: less than 10 μM, B: 10 μM or more and less than 50 μM, and C: 50 μM or more. As a result of using apremilast as the test compound, the evaluation was C in all cancer cells. On the other hand, as a result of using the compound obtained in Example 248 as the test compound, the evaluation was A in all cancer cells.

The next test has as its system IL-5. The experiment in a line: Cytokine suppression using human T cells: IL-5. Particulars: T-cell; human CD3-positive T cells, CD3 and CD28 antibody, about 48 hours; read-out: IL-5 Inhibitory Activity, Human T-Cell (Test Example 5). How it is done: as §1, §2
The test system of test [4] is IL-17A. As to the kind of experiment: Cytokine suppression using human peripheral blood mononuclear cells: IL-17A. Particulars: human PBMC, concanavalin A 20 μg/mL; read-out: IL-17A Inhibitory Activity, Human PBMC (Test Example 4). The protocol:
as §3
as §2, with “TNFα inhibitory activity and IL-5” for “TNFα”, “IL-23 inhibitory activity, IL-4” for “IL-5”

For another test, the system named is IL-4. The experiment in a line: Cytokine suppression using human peripheral blood mononuclear cells: IL-4. The conditions noted are these: human PBMC, CD3 antibody and CD28 antibody; read-out: IL-4 Inhibitory Activity, Human PBMC (Test Example 4). The protocol:
as §3
as §2, with “TNFα inhibitory activity and IL-5” for “TNFα”, “IL-23 inhibitory activity, IL-4” for “IL-5”

In another test the test system is A549 (lung cancer). The experiment in a line: Antitumor activity: growth inhibition of A549. The conditions noted are these: Homo sapiens, 120 h; A549, culturing for 5 days; read-out: 50% growth inhibitory concentration. How it is done: as §4
Test [5] has as its system IL-17A. The experiment in a line: Cytokine suppression using human T cells: IL-17A. Particulars: T-cell; human CD3-positive T cells, CD3 antibody, about 48 hours; read-out: IL-17A Inhibitory Activity, Human T-Cell (Test Example 5). The protocol:
as §1, §2

For a further test, the system named is TNFα. The experiment in a line: Cytokine suppression using human T cells: TNFα. Particulars: T-cell; human CD3-positive T cells, CD3 antibody, about 18 hours; read-out: TNFα Inhibitory Activity, Human T-Cell (Test Example 5). How it is done: as §1, §2

Data on two compounds can be found in US12239643B2, “Therapeutic agent for inflammatory diseases, autoimmune diseases, fibrotic diseases, and cancer diseases” (MEIJI SEIKA PHARMA CO., LTD., priority 2018, dated 2025).

On to `CC(C)(O)C(F)(F)Oc1ccc(-c2nccs2)c2oc(N3CC4CC(C3)N4)nc12` [Example 248, 1-((2-(3,6-Diazabicyclo[3.1.1]heptan-3-yl)-7-(thiazol-2-yl)benzo[d]oxazol-4-yl)oxy)-1,1-difluoro-2-methylpropan-2-ol], for which the IC50 in the test on IL-13 [1] was under 0.5 µM; with IL-13 [2], under 0.5 µM; in test [3], under 10 µM; in the test with IL-5 it was under 0.5 µM; in the test on IL-17A [4], under 0.5 µM; with IL-4 it was under 0.5 µM. Also, the figures for the IC50 with A549 (lung cancer), in the test with IL-17A [5] and in the test on TNFα were under 10 µM, under 0.5 µM and under 0.01 µM, respectively.
`CCOc1cc([C@@H](CS(C)(=O)=O)N2C(=O)c3cccc(NC(C)=O)c3C2=O)ccc1OC` [apremilast, reference compound]: the IC50 in the test with IL-13 [1] was 0.5 to 5 µM; in the test with IL-13 [2], at least 5 µM; in test [3], at least 50 µM; in the test on IL-5 it was at least 5 µM; in the test on IL-17A [4] it was 0.5 to 5 µM; in the test with IL-4 it was at least 5 µM. Also, the IC50 in the test on A549 (lung cancer) was at least 50 µM; in the test with IL-17A [5], 0.5 to 5 µM; with TNFα, over 0.1 µM.
